“And” between values parts separate entries of the source, which are not always exact repeats. Equal values may be shown once. Where a name gives a salt, the structure may show the parent alone. Read-outs that look alike come from different tables or passages of the source. Where a SMILES comes first, the peptide text is derived from it.
Test system: cytochrome c
Assay type: cell-based, mouse
[1] = composite Z-score vs mock-treated (DMSO) wells, concentration of each compound in μM
[2] = normalized score (composite Z-score vs DMSO mock-treated wells), compound concentration (μM)

Structure (SMILES)	cyt c	cyt c [1]	also measured
CC(=C(CCO)SSCC1CCCO1)N(C=O)Cc1cnc(C)nc1N (stereo in doubt) [fursultiamine]	0.477	–	–
NC1(C(=O)O)CCC1 [1-aminocyclobutane carboxylic acid]	−0.335	–	–
NCC(CC(=O)O)c1ccc(Cl)s1 (stereo not drawn) [4-amino-3-(5-chlorothien-2-yl)butanoic acid]	–	0.593	–
Cc1cc(O)cc(=O)o1 [4-hydroxy-6-methylpyran-2-one]	−0.316	–	–
COc1ccc(-c2cc(=O)c3c(OC)cc(O)cc3o2)cc1 [5,4′-dimethoxy-7-hydroxyflavone]	–	0.173	–
NCCCCCC(=O)O [6-aminocaproic acid]	–	–	cyt c (composite Z-score vs DMSO mock-treated wells): −0.680
Cc1n[nH]c(=O)[nH]c1=O [6-azathymine]	0.583	–	–
Nc1c2c(nc3ccccc13)CCCC2 [9-amino-1,2,3,4-tetrahydroacridine]	–	–	cyt c (composite Z-score vs DMSO): 0.967
CC(=O)N[C@@H](CC(C)C)C(=O)O [N-acetyl-L-leucine]	0.648	–	–
CC(=O)N[C@@H](CC(=O)O)C(=O)N[C@@H](CCC(=O)O)C(=O)O [N-acetylaspartylglutamic acid] (Ac-Asp-Glu-OH)	–	0.480	–
N[C@@H](Cc1c[nH]cn1)C(=O)Nc1ccc2ccccc2c1 [N-histidyl-2-aminonaphthalene]	–	0.214	–
CNc1ccccc1C(=O)O [N-methylanthranilic acid]	0.299	–	–
CC(=O)Nc1ccccc1 [acetanilide]	–	–	cyt c (composite Z-score vs DMSO): 0.532
CC(=O)Nc1nnc(S(N)(=O)=O)s1 [acetazolamide]	–	–	cyt c (composite Z-score vs DMSO): 0.698 and 0.613
NCCCCCC(=O)O [aminocaproic acid]	–	–	cyt c (composite Z-score vs DMSO mock-treated wells): 0.280
NC1(C(=O)O)CC1 [aminocyclopropanecarboxylic acid]	–	–	cyt c (composite Z-score vs DMSO): 0.213
Cn1c(=O)c2[nH]cnc2n(C)c1=O [aminophylline]	–	–	cyt c (composite Z-score vs DMSO): 0.177
CCOC(=O)C1=C(COCCN)NC(C)=C(C(=O)OC)C1c1ccccc1Cl (stereo not drawn) [amlodipine]	–	0.902	–
CC(C)NCC(O)COc1ccc(CC(N)=O)cc1 (stereo not drawn) [atenolol, reference compound]	–	–	cyt c (composite Z-score vs DMSO): 0.403
CC(C)c1c(C(=O)Nc2ccccc2)c(-c2ccccc2)c(-c2ccc(F)cc2)n1CC[C@@H](O)C[C@@H](O)CC(=O)O [atorvastatin, reference compound]	−1.023	–	–
O=C1C(O)=C([C@H]2CC[C@H](c3ccc(Cl)cc3)CC2)C(=O)c2ccccc21 [atovaquone]	–	−0.124	–
COc1ccc(CC2c3cc(OC)c(OC)cc3CC[N+]2(C)CCC(=O)OCCCCCOC(=O)CC[N+]2(C)CCc3cc(OC)c(OC)cc3C2Cc2ccc(OC)c(OC)c2)cc1OC (stereo not drawn) [atracurium]	–	1.176	–
CN1[C@@H]2CC[C@H]1C[C@@H](OC(=O)C(CO)c1ccccc1)C2 (stereo partly drawn) [atropine sulfate]	0.071	–	–
CN1[C@@H]2CC[C@H]1C[C@@H](OC(=O)C(CO)c1ccccc1)C2 (stereo partly drawn) [atropine]	1.709	–	–
CCCC1C(=O)N2C(N(C)C)=Nc3ccc(C)cc3N2C1=O (stereo not drawn) [azapropazone]	0.418	–	–
CN1CCCC(n2nc(Cc3ccc(Cl)cc3)c3ccccc3c2=O)CC1 (stereo not drawn) [azelastine]	–	0.054	–

Structure (SMILES)	cyt c	cyt c [1]	also measured
CN1[C@@H]2CC[C@H]1C[C@@H](OC(c1ccccc1)c1ccccc1)C2 [benztropine]	–	–	cyt c (composite Z-score vs DMSO mock-treated wells): −1.170
O=C(OCc1ccccc1)c1ccccc1 [benzyl benzoate]	–	–	cyt c (composite Z-score vs DMSO): 0.394
COc1c(O)cc2c(c1O)[C@@H]1O[C@H](CO)[C@@H](O)[C@H](O)[C@H]1OC2=O [bergenin]	–	0.831	–
CC1=C(/C=C/C(C)=C/C=C/C(C)=C/C=C/C=C(C)/C=C/C=C(C)/C=C/C2=C(C)CCCC2(C)C)C(C)(C)CCC1 [beta-carotene]	0.027	–	–
CC(C)NCC(O)COc1ccc(CCOCC2CC2)cc1 (stereo not drawn) [betaxolol]	0.064	–	–
c1ccc(-c2ccc(C(c3ccccc3)n3ccnc3)cc2)cc1 (stereo not drawn) [bifonazole]	0.179	–	–
CC(C)NCC(O)COc1ccc(COCCOC(C)C)cc1 (stereo not drawn) [bisoprolol]	–	–	cyt c [2]: 0.874
CC[N+](C)(C)Cc1ccccc1Br [bretylium]	0.560	–	cyt c (composite Z-score): 0.295
O=C1CC2(CCCC2)CC(=O)N1CCCCN1CCN(c2ncccn2)CC1 [buspirone]	0.228	–	–
Cn1c(=O)c2c(ncn2C)n(C)c1=O [caffeine]	–	–	cyt c (composite Z-score vs DMSO): 0.292
N=C(N)NOCC[C@H](N)C(=O)O [canavanine]	–	−0.321	–
C[C@]12CCC(=O)C=C1C=C[C@@H]1[C@@H]2CC[C@@]2(C)[C@H]1CC[C@@]21CCC(=O)O1 [canrenone]	–	0.816	–
CC1(C)[C@@H](OC(=O)CCC(=O)O)CC[C@]2(C)[C@H]3C(=O)C=C4[C@@H]5C[C@@](C)(C(=O)O)CC[C@]5(C)CC[C@@]4(C)[C@]3(C)CC[C@@H]12 [carbenoxolone]	0.145	–	–
COc1ccccc1OCCNCC(O)COc1cccc2[nH]c3ccccc3c12 (stereo not drawn) [carvedilol]	–	−4.745	–
C[C@@H]1CC[C@H]2C(C)(C)[C@H]3C[C@@]12CC[C@@]3(C)O [cedrol]	−0.218	–	–
NC(=O)c1cc[n+](CC2=C(C(=O)O)N3C(=O)[C@@H](NC(=O)[C@@H](c4ccccc4)S(=O)(=O)[O-])[C@H]3SC2)cc1 [cefsulodin]	–	−1.078	–
CC(C)(O/N=C(\C(=O)N[C@@H]1C(=O)N2C(C(=O)[O-])=C(C[n+]3ccccc3)CS[C@H]12)c1csc(N)n1)C(=O)O [ceftazidime]	–	0.740	–
O=C(Cc1cccs1)N[C@@H]1C(=O)N2C(C(=O)[O-])=C(C[n+]3ccccc3)CS[C@H]12 [cephaloridine]	–	−0.278	–
O=C(O)COCCN1CCN(C(c2ccccc2)c2ccc(Cl)cc2)CC1 (stereo not drawn) [cetirizine]	0.507	–	–
CC(C)CCC[C@@H](C)[C@H]1CC[C@H]2[C@@H]3CC=C4CC(=O)CC[C@]4(C)[C@H]3CC[C@]12C [cholest-5-en-3-one]	0.600	–	–
C[C@H](CCC(=O)O)[C@H]1CC[C@H]2[C@@H]3[C@H](O)C[C@@H]4C[C@H](O)CC[C@]4(C)[C@H]3C[C@H](O)[C@]12C [cholic acid]	0.514	–	–
C[N+](C)(C)CCO [choline]	–	–	cyt c (composite Z-score vs DMSO): 0.713
CN/C(=N/CCSCc1nc[nH]c1C)NC#N [cimetidine]	0.794 and 0.587	–	–
C=C[C@H]1CN2CC[C@H]1C[C@H]2[C@H](O)c1ccnc2ccccc12 [cinchonidine]	–	−0.164	–
COc1cc(N)c(Cl)cc1C(=O)NC1CCN(CCCOc2ccc(F)cc2)CC1OC (stereo not drawn) [cisapride]	–	–	cyt c [2]: −0.495
C[N+](C)(C)CCOP(=O)(O)OP(=O)([O-])OC[C@H]1O[C@@H](n2ccc(N)nc2=O)[C@H](O)[C@@H]1O [citicoline]	–	0.322	–

Structure (SMILES)	cyt c	cyt c [1]	also measured
CCN(CC)CCOc1ccc(C(=C(Cl)c2ccccc2)c2ccccc2)cc1 [clomiphene]	0.699	–	cyt c (composite Z-score vs DMSO mock-treated wells): 0.025
Nc1cc(C(Cl)=C(Cl)Cl)c(S(N)(=O)=O)cc1S(N)(=O)=O [clorsulon]	−0.186	–	–
C[C@]12C[C@H](O)[C@H]3[C@@H](CCC4=CC(=O)CC[C@@]43C)[C@@H]1CC[C@@H]2C(=O)CO [corticosterone]	−0.379	–	–
CC1(C)S[C@@H]2[C@H](NC(=O)C3(N)CCCCC3)C(=O)N2[C@H]1C(=O)O [cyclacillin]	–	–	cyt c (composite Z-score): −0.886
O=P1(N(CCCl)CCCl)NCCCO1 (stereo not drawn) [cyclophosphamide]	−0.088	–	–
CN1CCC(=C2c3ccccc3C=Cc3ccccc32)CC1 [cyproheptadine]	–	–	cyt c (composite Z-score): 0.064
C[C@]12CC[C@H](O)CC1=CC[C@@H]1[C@@H]2CC[C@]2(C)C(=O)CC[C@@H]12 [dehydroepiandrosterone]	–	−0.634	–
CN(CCCCCCCCCCN(C)C(=O)Oc1cccc([N+](C)(C)C)c1)C(=O)Oc1cccc([N+](C)(C)C)c1 [demecarium]	–	−0.211	–
COc1ccc(-c2cc(C(F)F)nn2-c2ccc(S(N)(=O)=O)cc2)cc1F [deracoxib]	–	0.350	–
COc1cc(OC)c2c(=O)c(-c3ccc4c(c3)OCO4)coc2c1 [derrustone]	–	0.470	–
NC[C@@H]1CC[C@@H](N)[C@@H](O[C@H]2[C@H](O)[C@@H](O[C@H]3O[C@H](CO)[C@@H](O)[C@H](N)[C@H]3O)[C@H](N)C[C@@H]2N)O1 [dibekacin]	0.464	–	–
COc1c(Cl)ccc(Cl)c1C(=O)O [dicamba]	0.278	–	–
Cc1onc(-c2c(Cl)cccc2Cl)c1C(=O)N[C@@H]1C(=O)N2[C@@H]1SC(C)(C)[C@@H]2C(=O)O [dicloxacillin sodium salt]	0.836	–	–
COc1ccc([C@@H]2Sc3ccccc3N(CCN(C)C)C(=O)[C@@H]2OC(C)=O)cc1 [diltiazem]	0.385	–	cyt c (composite Z-score vs DMSO): −0.201
CN(C)CCCSC(=N)N [dimaprit]	–	–	cyt c (composite Z-score): −0.184
CCCCc1cc2ccccc2c(OCCN(C)C)n1 [dimethisoquin]	–	−1.006	–
CNC(=O)CSP(=S)(OC)OC [dimethoate]	0.837	–	–
Cc1c(C(N)=O)cc([N+](=O)[O-])cc1[N+](=O)[O-] [dinitolmide]	–	–	cyt c (composite Z-score vs DMSO): 0.218
CN1CCC(OC(c2ccccc2)c2ccccc2)CC1 [diphenylpyraline]	0.321 and 0.558	–	–
CNCC(O)c1ccc(OC(=O)C(C)(C)C)c(OC(=O)C(C)(C)C)c1 (stereo not drawn) [dipivefrin]	–	−0.180	–
CC[C@H]1OC(=O)[C@H](C)[C@@H](O[C@H]2C[C@@](C)(OC)[C@@H](O)[C@H](C)O2)[C@H](C)[C@@H](O[C@@H]2O[C@H](C)C[C@H](N(C)C)[C@H]2O)[C@](C)(O)C[C@@H](C)[C@@H]2N[C@@H](COCCOC)O[C@H]([C@H]2C)[C@]1(C)O [dirithromycin]	–	0.356	–
CC(CCc1ccc(O)cc1)NCCc1ccc(O)c(O)c1 (stereo not drawn) [dobutamine]	–	−0.289	–
O=c1[nH]c2ccccc2n1CCCN1CCC(n2c(=O)[nH]c3cc(Cl)ccc32)CC1 [domperidone]	0.276	–	–
CCN[C@H]1C[C@H](C)S(=O)(=O)c2sc(S(N)(=O)=O)cc21 [dorzolamide]	–	–	cyt c (composite Z-score vs DMSO): −0.076
CN(C)CCC=C1c2ccccc2COc2ccccc21 [doxepin]	1.151	–	cyt c (composite Z-score vs DMSO): −0.095

— US20090143279A1 (priority 2007, published 2009)
